Reference: ChEMBL document CHEMBL1201862, “PubChem BioAssay data set” (2004)
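Interpolation was linear, between the two tested concentrations surrounding the appropriate level; five concentrations were tested over 48 hours in 96-well plates. GI50 is the concentration that inhibits growth by half.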 Activity calls are given as the source filed them. Rule as the data show it: active = GI50 up to about 1.1 µM and inactive = higher.

Experiments:
Assay in all cases: inhibition of tumour cell growth, NCI panel, 48 h
SR = test system: SR
MDA-MB-435 = test system: MDA-MB-435
MCF7 = test system: MCF7
HL-60 = test system: HL-60
TK-10 = test system: TK-10
HCT-116 = test system: HCT-116
RXF 393 = test system: RXF 393
SK-MEL-2 = test system: SK-MEL-2
BT-549 = test system: BT-549
NCI-H23 = test system: NCI-H23
SK-MEL-28 = test system: SK-MEL-28
MOLT-4 = test system: MOLT-4
SW-620 = test system: SW-620
EKVX = test system: EKVX
ACHN = test system: ACHN
OVCAR-8 = test system: OVCAR-8
DU-145 = test system: DU-145
CCRF-CEM = test system: CCRF-CEM
COLO 205 = test system: COLO 205
IGROV-1 = test system: IGROV-1

SMILES | GI50 (SR) | GI50 (MDA-MB-435) | GI50 (MCF7) | GI50 (HL-60) | GI50 (TK-10) | GI50 (HCT-116) | GI50 (RXF 393) | GI50 (SK-MEL-2) | GI50 (BT-549) | GI50 (NCI-H23) | GI50 (SK-MEL-28) | GI50 (MOLT-4) | GI50 (SW-620) | GI50 (EKVX) | GI50 (ACHN) | GI50 (OVCAR-8) | GI50 (DU-145) | GI50 (CCRF-CEM) | GI50 (COLO 205) | GI50 (IGROV-1)
O=C(c1cccs1)N(Cc1cccnc1)C(=S)N(Cc1cccnc1)C(=O)c1cccs1 | 7.82 µM (inactive) | > 100 µM (inactive) | 4.85 µM (inactive) | > 100 µM (inactive) | 34 µM (inactive) | 45.8 µM (inactive) | > 100 µM (inactive) | 26.2 µM (inactive) | > 100 µM (inactive) | > 100 µM (inactive) | > 100 µM (inactive) | > 100 µM (inactive) | > 100 µM (inactive) | 44.1 µM (inactive) | > 100 µM (inactive) | 50.4 µM (inactive) | > 100 µM (inactive) | > 100 µM (inactive) | > 100 µM (inactive) | 
CC(=O)C1=C(O)/C(=C\c2ccco2)OC1=O | > 10 µM (inactive) | > 10 µM (inactive) | > 10 µM (inactive) | > 10 µM (inactive) | > 10 µM (inactive) | > 10 µM (inactive) | > 10 µM (inactive) | > 10 µM (inactive) | > 10 µM (inactive) | > 10 µM (inactive) | > 10 µM (inactive) | > 10 µM (inactive) | > 10 µM (inactive) | > 10 µM (inactive) | > 10 µM (inactive) | > 10 µM (inactive) | > 10 µM (inactive) | > 10 µM (inactive) | > 10 µM (inactive) | > 10 µM (inactive)
CC(C)(C)c1cc(C(C)(C)C)c2sc(=O)oc2c1O | 4.98 µM (inactive) | 12.4 µM (inactive) | 12.6 µM (inactive) | 5.6 µM (inactive) | 11.8 µM (inactive) | 12.9 µM (inactive) | 11.9 µM (inactive) | 15.5 µM (inactive) | 18.7 µM (inactive) |  | 16.3 µM (inactive) | 8.26 µM (inactive) |  | 15 µM (inactive) | 12.1 µM (inactive) | 16.3 µM (inactive) | 17.1 µM (inactive) | 18.8 µM (inactive) | 18.8 µM (inactive) | 14.2 µM (inactive)
CCN(CC)c1ccc(/C=C2\CCc3ccc([N+](=O)[O-])cc3C2=O)cc1 | 0.324 µM (active) | 0.169 µM (active) | 0.535 µM (active) | 0.249 µM (active) | 2.86 µM (inactive) | 0.199 µM (active) | 2.99 µM (inactive) |  | > 100 µM (inactive) | 7.62 µM (inactive) | 3.46 µM (inactive) | 0.488 µM (active) | 0.297 µM (active) | 5.27 µM (inactive) | 8.85 µM (inactive) | 3.73 µM (inactive) | 6.01 µM (inactive) | 0.217 µM (active) | 4.01 µM (inactive) | 7.06 µM (inactive)
Oc1c(C2=N[C@H]3CCCC[C@@H]3N2)ccc2ccccc12 | > 100 µM (inactive) | > 100 µM (inactive) | > 100 µM (inactive) | > 100 µM (inactive) | > 100 µM (inactive) | > 100 µM (inactive) |  | > 100 µM (inactive) | > 100 µM (inactive) | > 100 µM (inactive) | > 100 µM (inactive) | > 100 µM (inactive) | > 100 µM (inactive) | > 68.2 µM (inactive) | > 100 µM (inactive) | > 100 µM (inactive) | > 100 µM (inactive) | > 100 µM (inactive) | > 100 µM (inactive) | > 82 µM (inactive)
COP(=O)(OC)[C@@](O)(c1ccccc1)[C@@H](O)[C@@H](O)c1ccccc1 | 0.531 µM (active) | > 100 µM (inactive) | 27.6 µM (inactive) | > 100 µM (inactive) | > 100 µM (inactive) | 29.3 µM (inactive) | > 100 µM (inactive) | > 100 µM (inactive) | > 100 µM (inactive) | > 100 µM (inactive) | > 100 µM (inactive) |  | 44.7 µM (inactive) | > 100 µM (inactive) | > 100 µM (inactive) | > 100 µM (inactive) | > 100 µM (inactive) | 21.7 µM (inactive) | > 100 µM (inactive) | 87.5 µM (inactive)
C=CCC(CNC(=O)OCc1ccccc1)O[Si](C)(C)C(C)(C)C (stereo unspecified) | 18.5 µM (inactive) | 38.5 µM (inactive) | 22.3 µM (inactive) | 20.1 µM (inactive) | 74.5 µM (inactive) | 20.8 µM (inactive) | 17.3 µM (inactive) | 16.6 µM (inactive) | 55 µM (inactive) | 55.5 µM (inactive) | 48 µM (inactive) | 19.6 µM (inactive) | 38.1 µM (inactive) | 25.4 µM (inactive) | 33.6 µM (inactive) | 45.3 µM (inactive) | 36.5 µM (inactive) | 28.3 µM (inactive) | 16.6 µM (inactive) | 27.4 µM (inactive)
Cn1c2ccc(Cl)cc2c2ccc3c(c21)C(=O)C=CC3=O | > 10 µM (inactive) | > 10 µM (inactive) | > 10 µM (inactive) | 8.49 µM (inactive) | > 10 µM (inactive) | > 10 µM (inactive) |  | > 10 µM (inactive) | > 10 µM (inactive) | > 10 µM (inactive) | > 10 µM (inactive) | 6.44 µM (inactive) | > 10 µM (inactive) | > 10 µM (inactive) | > 10 µM (inactive) | > 10 µM (inactive) | > 10 µM (inactive) | 3.88 µM (inactive) | > 10 µM (inactive) | > 10 µM (inactive)
Nc1c(Cl)cc(-c2nc3ccccc3s2)cc1Cl | > 100 µM (inactive) | > 100 µM (inactive) | 0.522 µM (active) | > 100 µM (inactive) | 0.501 µM (active) | > 100 µM (inactive) | > 100 µM (inactive) | > 100 µM (inactive) | > 100 µM (inactive) |  | > 100 µM (inactive) | > 100 µM (inactive) | > 100 µM (inactive) | > 100 µM (inactive) | > 100 µM (inactive) | > 100 µM (inactive) | > 100 µM (inactive) | > 100 µM (inactive) | > 100 µM (inactive) | 0.328 µM (active)
O=C1c2ccccc2C(=O)c2c(NCCNC(=O)C3CCCN3)ccc(NCCNC(=O)C3CCCN3)c21 (stereo unspecified) | 22 µM (inactive) | 55.8 µM (inactive) | 30.8 µM (inactive) | 31 µM (inactive) | > 100 µM (inactive) | 2.65 µM (inactive) |  | > 100 µM (inactive) | 29.9 µM (inactive) | 52.8 µM (inactive) | 41.7 µM (inactive) | 22.1 µM (inactive) | 40.4 µM (inactive) | > 100 µM (inactive) | 53.7 µM (inactive) | 33.9 µM (inactive) | 70.1 µM (inactive) | 18.8 µM (inactive) | 24.5 µM (inactive) | 62.7 µM (inactive)
CCOC(=O)N1CCN(c2c(C)nc(C)nc2O)CC1 | > 100 µM (inactive) | > 100 µM (inactive) | > 100 µM (inactive) | > 100 µM (inactive) | > 100 µM (inactive) | > 100 µM (inactive) | > 100 µM (inactive) |  | > 100 µM (inactive) | > 100 µM (inactive) | > 100 µM (inactive) | > 100 µM (inactive) | > 100 µM (inactive) | > 100 µM (inactive) | > 100 µM (inactive) | > 100 µM (inactive) | > 100 µM (inactive) | > 100 µM (inactive) | > 100 µM (inactive) | > 100 µM (inactive)
CC[C@H](C)C1=C(OC(C)=O)[N@+]2([O-])Oc3ccc(-c4c(O)c(O)c(-c5ccc(OC(C)=O)cc5)c(OC(C)=O)c4OC(C)=O)cc3O[C@]2([C@@H](C)CC)C(=O)N1O | 13.6 µM (inactive) | 27.1 µM (inactive) | 19.4 µM (inactive) | 15.9 µM (inactive) | 20.4 µM (inactive) | 10.8 µM (inactive) | 29.6 µM (inactive) | > 50 µM (inactive) | 16.9 µM (inactive) | 29.8 µM (inactive) | 27 µM (inactive) | 13.2 µM (inactive) | 11.1 µM (inactive) | 18.8 µM (inactive) | 14.9 µM (inactive) | 18.4 µM (inactive) | 44.5 µM (inactive) |  | 19.8 µM (inactive) | 17 µM (inactive)
Nc1ccn(C2OC(C(OC3OC(CO)C(O)C(N)C3O)C(O)C(O)C(O)C(O)CO)C(N)C(O)C2O)c(=O)n1 (stereo unspecified) | 19.9 µM (inactive) | > 100 µM (inactive) | > 100 µM (inactive) | > 100 µM (inactive) | 85.9 µM (inactive) | 46.3 µM (inactive) |  | > 100 µM (inactive) | 31.3 µM (inactive) | > 100 µM (inactive) | > 100 µM (inactive) | > 100 µM (inactive) | > 100 µM (inactive) | > 100 µM (inactive) | 21.7 µM (inactive) | 81.5 µM (inactive) | > 100 µM (inactive) | > 100 µM (inactive) | > 100 µM (inactive) | 30.7 µM (inactive)
COP(=O)(OC)C(O)/C=C/c1ccco1 (stereo unspecified) | > 100 µM (inactive) | > 100 µM (inactive) | > 100 µM (inactive) | > 100 µM (inactive) |  | > 100 µM (inactive) | > 100 µM (inactive) | > 100 µM (inactive) | > 100 µM (inactive) | > 100 µM (inactive) | > 100 µM (inactive) | > 100 µM (inactive) | > 100 µM (inactive) | > 100 µM (inactive) | > 100 µM (inactive) | > 100 µM (inactive) | > 100 µM (inactive) |  | > 100 µM (inactive) | > 100 µM (inactive)
